# Data from patent US20190369107A1, “ZWITTERIONIC NANOPARTICLES” (priority 2017, published 2019).
# “Also recorded” adds a separate entry of the source.
# System: A549 cells
# Test: Toxicity tests of QDQRs on A549 cells (Cellomics Array Scan, Hoechst 33342 / MitoTracker Deep Red)
# Format: cell-based, human
# Details: 16 h incubation
# Description: The culture medium consisted of 10% FCS in DMEM with 1% PenStrep and sodium pyruvate in each case. The incubation of the cells always took place at 37° C. and a CO2 content of 5%.
# The zwitterionic Quantum Dots/Quantum Rods (QDQRs) nanoparticles were examined in various in vitro experiments with regard to their toxicity and non-specific cell uptake. Yellow-emitting QDQRs comprising the short- and long-chain zwitterionic ligand (QDQRs-17a and QDQRs-17b) were used for the studies to investigate a possible influence of the chain length of the ligand on the interactions of the QDQRs with cells. A549 cells were used for both toxicity and cell uptake studies. A549 cells are human basal epithelial cells derived from an adenocarcinoma of the lung which have been cultured as a cell line.
# The toxicity of the zwitterionic QDQRs-17a and QDQRs-17b was tested using the Cellomics Array Scan. For the toxicity tests, A549 cells were plated on a 96-well plate and incubated with QDQR solutions in a concentration range of 25 to 500 nM. Cadmium chloride, which was used in a concentration range from 25 to 1,000 μM, was used as the positive control. The increase in the cadmium chloride concentration by a factor of 1,000 is due to the fact that a single QDQR of the tested samples contains about 8,200 cadmium atoms. Assuming that the totality of the nanoparticles dissolve and release the cadmium contained in them, the lowest concentration of 25 nM QDQRs used would correspond to a concentration of 205 μM cadmium chloride. After an incubation period of 16 hours, the cells were blended with a staining solution consisting of the cell nucleus dye Hoechst 33342 and the mitochondrial dye MitoTracker® Deep Red FM and then fixed with formaldehyde solution. The 96-well plates were then read out with the Cellomics Array Scan. A software was used to automatically determine the parameters number of cells, cell nucleus intensity and cell nucleus size using the intensity of the dye by Hoechst, and the transmembrane potential of the mitochondria on the basis of the mitochondrial dye. In addition, microscopic images of the cells were taken to control the number of cells and cell morphology.
# For the toxicity tests, A549 cells were plated in culture medium on a 96-well plate (10,000 cells per well) and incubated overnight. When the medium had been sucked off, the samples to be tested (diluted with culture medium, 100 μL per well) were applied in different concentrations and incubated for 16 hours. The samples were then removed and the cells were mixed with 100 μL staining solution (final concentration: 75 nM MitoTracker® Deep Red and 2.5 μg/ml Hoechst 33342 in DMEM with 10% FCS) and incubated for a further 30 minutes. To fix the cells, the staining solution was removed and 100 μL of a warm fixing solution (3.7% formaldehyde in Dulbecco's PBS, DPBS) were added. After 20 minutes, the fixing solution was sucked off and washed twice with DPBS before the samples were measured on the Cellomics Array Scan.
smiles,measurement,setting,value
[Cl][Cd][Cl] [cadmium chloride],morphological changes of the cells or cell nuclei in microscopic images,cadmium chloride at 100 μM or more,get globular
same,number of cells per well,"over the tested concentration range, FIG. 1 A",decreases significantly; also recorded: decreases noticeably
same,cell nucleus intensity (Hoechst 33342),"over the tested concentration range, FIG. 1 B",decreases significantly
same,cell nucleus size,"over the tested concentration range, FIG. 1 C",decreases significantly
same,transmembrane potential of the mitochondria,"over the tested concentration range, FIG. 1 D",first increases in the concentration range from 50 to 100 μM and then decreases again
same,concentration at which a toxic effect on the cells is shown,"positive control tested 25 to 1,000 μM",≥ 100 µM
